The record followed here is ChEMBL document CHEMBL1255342, “Efficacy of benzoxazinorifamycins in a mouse model of Chlamydia pneumoniae lung infection” (2008).

Type in all cases: functional
Assay [1] deals with Chlamydia pneumoniae. As to the kind of experiment: Antimicrobial activity against Chlamydia pneumoniae AR39 infected in C57BL/6J mouse at 1 mg/kg, ip assessed as bacterial load measured on day 10 post infection relative to control. The note with it: route intraperitoneal.
The subject of assay [2] is Chlamydia pneumoniae. As to the kind of experiment: Antimicrobial activity against Chlamydia pneumoniae AR39 infected in C57BL/6J mouse at 3 mg/kg, ip assessed as bacterial load measured on day 10 post infection relative to control. Conditions: route intraperitoneal.
The test system of assay [3] is Chlamydia pneumoniae. Description: Antimicrobial activity against Chlamydia pneumoniae TW-183 after 72 hrs by twofold dilution method. The note with it: TW-183, 72 h.

SMILES strings stand for the structures. Converted amounts (≈) assume the structure as drawn. “And” between values parts separate entries of the source, which are not always exact repeats. Equal values may be shown once.

As for `CO[C@H]1/C=C/O[C@@]2(C)Oc3c(C)c(O)c4c(=O)c(c5oc6cc(N7CCC(C)(N(C)C)CC7)cc(O)c6nc-5c4c3C2=O)NC(=O)/C(C)=C\C=C\[C@H](C)[C@H](O)[C@@H](C)[C@@H](O)[C@@H](C)[C@H](OC(C)=O)[C@@H]1C`, the figures for the Efficacy in the assay with Chlamydia pneumoniae [1] and with Chlamydia pneumoniae [2] were 0.49% and 0.56%, respectively.

As for `CO[C@H]1/C=C/O[C@@]2(C)Oc3c(C)c(O)c4c(=O)c(c5oc6cc(N7CCN(C)CC7)cc(O)c6nc-5c4c3C2=O)NC(=O)/C(C)=C\C=C\[C@H](C)[C@H](O)[C@@H](C)[C@@H](O)[C@@H](C)[C@H](O)[C@@H]1C`, in the assay on Chlamydia pneumoniae [3], the MIC worked out at 0.125 ng/mL (≈ 0.146 nM). In addition, the Efficacy with Chlamydia pneumoniae [1] (1 mg/kg) is 1.26% and 6.04%; in the assay with Chlamydia pneumoniae [2] (3 mg/kg), 0.44% and 0.18%.

For the compound `CO[C@H]1/C=C/O[C@@]2(C)Oc3c(C)c(O)c4c(=O)c(c5oc6cc(N7CCN(CC8CC8)CC7)cc(O)c6nc-5c4c3C2=O)NC(=O)/C(C)=C\C=C\[C@H](C)[C@H](O)[C@@H](C)[C@@H](O)[C@@H](C)[C@H](O)[C@@H]1C`, in the assay with Chlamydia pneumoniae [3], inhibition of growth (MIC) required 0.064 ng/mL (≈ 0.0713 nM). Also, the Efficacy in the assay on Chlamydia pneumoniae [1] was 1.34%; with Chlamydia pneumoniae [2], 15.51%.

`CO[C@H]1/C=C/O[C@@]2(C)Oc3c(C)c(O)c4c(=O)c(c5oc6cc(N7CC8CCC(C7)N8C)cc(O)c6nc-5c4c3C2=O)NC(=O)/C(C)=C\C=C\[C@H](C)[C@H](O)[C@@H](C)[C@@H](O)[C@@H](C)[C@H](OC(C)=O)[C@@H]1C`: 0.125 ng/mL (≈ 0.135 nM) was the least that counted as inhibitory against Chlamydia pneumoniae [3] (MIC). The Efficacy was 0.14% in the assay with Chlamydia pneumoniae [1] and less than 0.025% in the assay on Chlamydia pneumoniae [2].

As for `CO[C@H]1/C=C/O[C@@]2(C)Oc3c(C)c(O)c4c(=O)c(c5oc6cc(N7CC(N(C)C)C7)cc(O)c6nc-5c4c3C2=O)NC(=O)/C(C)=C\C=C\[C@H](C)[C@H](O)[C@@H](C)[C@@H](O)[C@@H](C)[C@H](OC(C)=O)[C@@H]1C`, in the assay on Chlamydia pneumoniae [3], the MIC came out at 0.064 ng/mL (≈ 0.0712 nM). The Efficacy is reported as 0.06% in the assay with Chlamydia pneumoniae [1] and 0.025% in the assay on Chlamydia pneumoniae [2].

In turn, `CO[C@H]1/C=C/O[C@@]2(C)Oc3c(C)c(O)c4c(=O)c(c5oc6cc(N7CCN(CC(C)C)CC7)cc(O)c6nc-5c4c3C2=O)NC(=O)/C(C)=C\C=C\[C@H](C)[C@H](O)[C@@H](C)[C@@H](O)[C@@H](C)[C@H](OC(C)=O)[C@@H]1C` [RIFALAZIL] yielded a minimal inhibitory concentration (MIC) with Chlamydia pneumoniae [3] of 0.25 ng/mL (≈ 0.266 nM). Further, the Efficacy was 0.24% in the assay on Chlamydia pneumoniae [1] and 1.14% in the assay with Chlamydia pneumoniae [2].

`CO[C@H]1/C=C/O[C@@]2(C)Oc3c(C)c(O)c4c(=O)c(c5oc6cc(N7CCC(C)(C)N(C)C(C)(C)C7)cc(O)c6nc-5c4c3C2=O)NC(=O)/C(C)=C\C=C\[C@H](C)[C@H](O)[C@@H](C)[C@@H](O)[C@@H](C)[C@H](OC(C)=O)[C@@H]1C`: the MIC in the assay on Chlamydia pneumoniae [3] was 0.064 ng/mL (≈ 0.066 nM). Further, the values for the Efficacy in the assay on Chlamydia pneumoniae [1] and with Chlamydia pneumoniae [2] were 0.03% and less than 0.025%, respectively.
